# Assay results published in publication PMC4045134, “Discovery of Triterpenoids as Reversible Inhibitors of α/β-hydrolase Domain Containing 12 (ABHD12)” (PLoS ONE, 2014).
# Key:
# Assay type in all cases: biochemical
# hFAAH = molecular target: T1, hFAAH (Homo sapiens, UniProt O00519); assay: FAAH activity, membranes of hFAAH overexpressing COS-7 cells, 3H-anandamide; conditions: read-out: hFAAH Remaining activity % control (mean (range)), n=2
# T1 construct: expressed in transfected cells; host or cells: COS-7
# T1 sequence (O00519 1-579): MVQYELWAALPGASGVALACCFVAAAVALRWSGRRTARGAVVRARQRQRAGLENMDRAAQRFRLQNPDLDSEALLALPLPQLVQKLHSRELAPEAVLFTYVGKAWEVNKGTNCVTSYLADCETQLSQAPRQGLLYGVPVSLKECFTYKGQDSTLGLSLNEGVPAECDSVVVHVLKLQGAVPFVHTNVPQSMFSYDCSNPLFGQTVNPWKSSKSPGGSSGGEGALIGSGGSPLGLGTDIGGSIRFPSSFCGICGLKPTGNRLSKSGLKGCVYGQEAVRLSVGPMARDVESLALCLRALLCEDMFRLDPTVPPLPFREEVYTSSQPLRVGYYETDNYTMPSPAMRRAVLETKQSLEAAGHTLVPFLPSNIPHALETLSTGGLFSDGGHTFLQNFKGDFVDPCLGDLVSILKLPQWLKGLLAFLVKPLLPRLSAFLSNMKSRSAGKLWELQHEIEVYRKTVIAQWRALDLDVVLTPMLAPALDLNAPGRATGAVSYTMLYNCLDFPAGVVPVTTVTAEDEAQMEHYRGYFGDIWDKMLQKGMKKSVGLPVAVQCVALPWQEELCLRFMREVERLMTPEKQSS
# Experimental: (§1) Glycerol liberated from 1-AG hydrolysis was determined with a sensitive fluorescent assay using lysates of HEK293 cells with transient overexpression of hABHD12, hABHD6 or hMAGL, essentially as previously described. […] Fluorescence (λex 530; λem 590 nm) was monitored using a Tecan Infinite M200 plate reader (Tecan Group Ltd., Männedorf, Switzerland). Inhibitory activities of selected compounds towards FAAH were determined using membranes of hFAAH overexpressing COS-7 cells, essentially as previously described. The final incubation volume (100 µL) contained 1 µg of protein and the substrate concentration was 20 µM (10 nM of ^3H-anandamide having specific activity of 60 Ci/mmol and concentration of 1 mCi/mL).
# hMAGL = molecular target: T2, hMAGL (Homo sapiens, UniProt Q99685); assay: Fluorescent glycerol assay in hMAGL-HEK293 lysates; conditions: 10 µM; read-out: hMAGL Remaining activity % control ± s.e.m (n=3)
# T2 construct: expressed in transfected cells; host or cells: HEK293 (transient)
# T2 sequence (Q99685 1-303): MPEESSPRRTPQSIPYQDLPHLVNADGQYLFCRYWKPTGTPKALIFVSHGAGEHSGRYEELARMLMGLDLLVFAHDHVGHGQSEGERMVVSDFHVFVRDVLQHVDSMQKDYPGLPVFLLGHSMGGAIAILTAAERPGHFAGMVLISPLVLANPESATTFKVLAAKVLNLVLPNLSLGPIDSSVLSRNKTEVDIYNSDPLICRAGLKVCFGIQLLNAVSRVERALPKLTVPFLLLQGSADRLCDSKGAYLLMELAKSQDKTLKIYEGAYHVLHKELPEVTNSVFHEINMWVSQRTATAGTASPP
# Experimental: as §1
# CB1R [1] = molecular target: T3, CB1R (Rattus norvegicus, UniProt P20272); assay: [35S]GTPγS binding, CB1R antagonist activity, rat cerebellar membranes; conditions: 10 µM
# T3 construct: membranes prepared from brain tissue of 4-week-old male rodents were used; from tissue; host or cells: rat cerebellar membranes
# Experimental: (§2) The CB1 and CB2 receptor activity of the selected compounds (10 µM) were measured using the GTPγS binding assay according to the previously described methods, [33].
# (§3) For ABPP experiments (Figure 6C) and cannabinoid receptor activity assays (Table S2), membranes prepared from brain tissue of 4-week-old male rodents were used. The animals were obtained from the National Laboratory Animal Centre, University of Eastern Finland. Approval for the harvesting of animal tissue was obtained from the local welfare officer of the University of Eastern Finland.
# hCB2R = molecular target: T4, hCB2R (Homo sapiens, UniProt P34972); assay: [35S]GTPγS binding, CB2R agonist activity, hCB2R-CHO cell membranes; conditions: 10 µM
# T4 construct: expressed in transfected cells; host or cells: CHO
# CB1R [2] = molecular target: T3, CB1R; assay: [35S]GTPγS binding, CB1R agonist activity, rat cerebellar membranes; conditions: 10 µM
# Experimental: as §2, §3
# [3] = test system: metabolic serine hydrolases; assay: Competitive ABPP, other serine hydrolases of mouse brain membrane proteome
# Experimental: Competitive ABPP using HEK293 cell lysates and mouse brain membranes was conducted to visualize effects of selected triterpenoids on the binding of the active site serine-targeting fluorescent fluorophosphonate probe TAMRA-FP following outlines of previous protocols, [31]. Briefly, lysates (25 µg) of HEK293 cells with or without (Mock) hABHD12 overexpression or mouse wholebrain membranes (100 µg) were treated for 1 h with DMSO or the inhibitor, after which TAMRA-FP labelling was conducted for 5 min (lysates) or 1 hour (membranes) at RT (final probe concentration 2 µM). The reaction was quenched by addition of gel loading buffer (followed by boiling for 5 min in the case of lysates), after which 10 µg protein (10 µl) was loaded per lane and the proteins were resolved in 10% SDS-PAGE together with standards. TAMRA-FP labeling was visualized (λex 552; λem 575 nm) by a fluorescent reader (FLA-3000 laser fluorescence scanner, Fujifilm, Tokyo, Japan). The intensity of bands was quantified using ImageJ, a freely available image analysis software (http://rsbweb.nih.gov/ij/).
# For ABPP experiments (Figure 6C) and cannabinoid receptor activity assays (Table S2), membranes prepared from brain tissue of 4-week-old male rodents were used. The animals were obtained from the National Laboratory Animal Centre, University of Eastern Finland. […]
# T3 sequence (P20272 whole entry): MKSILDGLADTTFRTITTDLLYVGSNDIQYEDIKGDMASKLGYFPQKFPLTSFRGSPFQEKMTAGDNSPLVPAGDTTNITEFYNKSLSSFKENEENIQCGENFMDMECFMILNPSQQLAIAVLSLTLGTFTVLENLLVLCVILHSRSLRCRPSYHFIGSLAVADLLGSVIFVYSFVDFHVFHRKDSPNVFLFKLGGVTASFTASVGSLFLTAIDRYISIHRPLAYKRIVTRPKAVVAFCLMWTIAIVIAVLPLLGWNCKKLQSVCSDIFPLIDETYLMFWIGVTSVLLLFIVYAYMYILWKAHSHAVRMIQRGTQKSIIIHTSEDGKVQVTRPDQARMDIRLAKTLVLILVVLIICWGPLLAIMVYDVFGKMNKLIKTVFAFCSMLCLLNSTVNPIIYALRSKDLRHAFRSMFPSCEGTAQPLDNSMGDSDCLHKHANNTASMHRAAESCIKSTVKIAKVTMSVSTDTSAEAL
# T4 sequence (P34972 whole entry): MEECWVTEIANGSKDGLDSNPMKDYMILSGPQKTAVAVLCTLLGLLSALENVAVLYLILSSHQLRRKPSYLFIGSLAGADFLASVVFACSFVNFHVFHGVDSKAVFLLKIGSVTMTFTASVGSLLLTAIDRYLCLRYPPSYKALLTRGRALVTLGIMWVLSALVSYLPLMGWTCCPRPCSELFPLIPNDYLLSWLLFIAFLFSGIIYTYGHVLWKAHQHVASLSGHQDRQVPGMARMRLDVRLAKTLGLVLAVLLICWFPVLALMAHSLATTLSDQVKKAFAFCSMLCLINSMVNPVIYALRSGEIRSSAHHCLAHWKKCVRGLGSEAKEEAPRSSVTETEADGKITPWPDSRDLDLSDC
compound,measurement,setting,value
"CC1(C)CC[C@]2(C(=O)O)CC[C@]3(C)C(=CC[C@@H]4[C@@]5(C)C[C@@H](O)[C@H](O)C(C)(C)[C@@H]5CC[C@]43C)[C@@H]2C1 [Compound 8, Maslinic acid, reference compound]",remaining activity at 10 µM,hFAAH,83%
same,remaining activity at 10 µM,hMAGL,95.6 ± 0.8%
same,"CB1R antagonist activity [35S]GTPγS binding % HU210-evoked response (Mean (range), n=2)",CB1R [1],99 (97-102) % HU210-evoked response
same,"CB2R agonist activity [35S]GTPγS binding % Basal (Mean (range), n=2)",hCB2R,114 (104-123) % Basal
same,"CB1R agonist activity [35S]GTPγS binding % Basal (Mean (range), n=2)",CB1R [2],93 (88-97) % Basal
same,additional targets among the metabolic serine hydrolases,[3],no additional targets are evident
